Results from patent US11478470B2, “Combination product of Bcl-2 inhibitor or Bcl-2/Bcl-xL dual inhibitor and BTK inhibitor and use thereof in the prevention and/or treatment of diseases” (ASCENTAGE PHARMA (SUZHOU) CO., LTD., priority 2018, dated 2022).
Like-named read-outs stand apart in the source and are kept apart here.

Assays:
[1] = system: DOHH2^R-ibrutinib cells; assay: CellTiter-Glo cell viability assay, ibrutinib-resistant DOHH2R-ibrutinib cells; format: cell-based, human; settings: for IC50: Homo sapiens, ibrutinib-resistant cells, CellTiter-Glo, 24 or 72 hours, read-out: IC50 value to the DOHH2^R-ibrutinib cell line (cell viability)
Experimental: (§1) DOHH2 cells were cultured in RPM11640 medium containing 10% calf serum, 1% antibiotics and 5 ug/ml verapamil (calcium ion channel blocker), and ibrutinib was added at a gradually increasing concentration from 0.5 uM to 10 uM. After exposure for about three months, a ibrutinib-resistant DOHH2R cell line was obtained, also referred to as DOHH2^R-ibrutinib. After DOHH2^R-ibrutinib was stabilized, it was continued to be cultured in culture medium containing 10 uM Ibrutinib to maintain its resistance. Ibrutinib is absent only in the susceptibility test with Compound 6 or 88.
(§2) Relative light units (RLU) were determined by a microplate reader (BioTek, Synergy H1 MF, USA). […] IC50 values were calculated using GraphPad Prism. IC50 was expressed as mean±standard deviation (SD).

[2] = system: DOHH2 cells; assay: CellTiter-Glo cell viability assay, DOHH2 cells (Example 11); format: cell-based; settings: Homo sapiens, DOHH-2, DOHH2 parental cells
Experimental: as §1, §2

[3] = system: OCI-LY1 cells; assay: Flow cytometry analysis of apoptosis (Annexin V/PI), OCI-LY1; format: cell-based, human; settings: OCI-LY1, 24 hours; 15 nM Compound 6, 150 nM ibrutinib, or the combination
Experimental: (§3) Apoptosis was evaluated with AnnexinV/propidium iodide (PI) dyes (BD Biosciences, Cat. 556547) according to manufacturer's instructions. Briefly, cells were seeded in 24-well plates at a density 2×10^5 cells/well, and treated with Compound 6 and/or ibrutinib (Selleck) to induce apoptosis. After 24 h, cells were collected, washed twice with PBS (pH 7.4), and stained with Annexin-V and propidium iodide (PI) for 15 mins. Stained samples were analyzed using flow cytometer Attune NxT (Life technologies).
(§4) In the experiment, the combination treatment with Compound 6 and ibrutinib was evaluated for its ability of apoptosis induction on DOHH2 and OCI-LY1 cells by co-staining of Annexin-V/Propidium iodide (PI) followed by flow cytometry analysis (FIG. 7A). […] Flow cytometry analysis of apoptotic cells by Annexin V and propidium iodide (PI) co-staining in DOHH-2 and OCI-LY1 cell lines treated with 10 nM (DOHH-2) or 15 nM (OCI-LY1) Compound 6, 100 nM (DOHH-2) or 150 nM (OCI-LY1) ibrutinib, or the combination for 24 hours. Three independent experiments were conducted and the representative results are shown (7A). The percentages of Annexin V-positive, PI-positive, or double positive DOHH-2 (7B) and OCI-LY1 (7C) cells are plotted as bar charts and shown as mean±SEM (n=3) (**p<0.01, ***p<0.001).

[4] = system: human OCI-LY1 (DLBCL) xenograft tumor; format: in vivo; settings: for RTV on the 43rd day after administration (mean ± standard error) / T/C (%) on day 43 after administration: Cpd. 6 100 mg/kg p.o. qd, Ibrutinib 15 mg/kg i.v. qd, day 43; for TGI (%) on day 43 after administration: TGI = 100 − T/C%
Experimental: (§5) All animal experiments were strictly in accordance with the laboratory animal use and management practices of GenePharma Co., Ltd. and Ascentage Pharma Group Co., Ltd. The calculation of relevant parameters referred to the Chinese CFDA “Guidelines for Non-Clinical Research Techniques of Cytotoxic Antitumor Drugs”.
(§6) Animal body weight and tumor size were measured twice a week during the experiment. Tumor growth was observed periodically, and the animals were randomly divided into groups according to tumor size and mouse body weight when the tumors grew to an average volume of 100-200 mm^3. The conditions and death of the animals were observed every day. Routine monitoring included the effects of tumor growth and treatment on normal animal behaviors, including activity, feeding and drinking situations, weight gain or loss, eyes, coat and other abnormalities in the experimental animals. The deaths and clinical symptoms observed during the experiment were recorded in the raw data. The entire operations of administration, measurement of mouse body weight and tumor volume were performed in a clean bench. Plasma and tumor tissues were collected, weighed and photographed after the end of the last administration according to the experimental protocol. Plasma and tumor samples were frozen and stored at −80° C.
(§7) Tumor volume (TV) was calculated as: TV=a×b^2/2, in which a and b represented the length and width of the tumor as measured, respectively. The relative tumor volume (RTV) was calculated as: RTV=Vt/V1, in which V1 was the tumor volume at the time of grouping and administration, and Vt was the tumor volume measured on a day after administration. […] Change of body weight %=(measured body weight−body weight at the time of grouping)/body weight at the time of grouping×100%.
(§8) If the synergy factor was >1, there was a synergistic effect; if the synergistic factor=1, there was an additive effect; if the synergistic factor <1, there was an antagonistic effect.
In short, when the average tumor volume reached approximately 90 mm^3, grouping and administration started. Ibrutinib was administered at a dose of 15 mg/kg, i.v., qd, from the day of grouping, for 3 weeks. […] On the 13th day after grouping, the administration was stopped and the observation period started.

[5] = system: various hematological malignancies cell lines including those from DLBCL and FL; assay: Anti-proliferative activity as single agent in hematological malignancies cell lines (data not shown); format: cell-based
[6] = system: human OCI-LY1 (DLBCL) xenograft tumor; format: in vivo; settings: Cpd. 6 50 mg/kg, Ibrutinib 20 mg/kg; for T/C on day 36 after administration: given as fraction
Experimental: (§9) . All animal experiments were strictly in accordance with the laboratory animal use and management practices of GenePharma Co., Ltd. and Ascentage Pharma Group Co., Ltd. The calculation of relevant parameters referred to the Chinese CFDA “Guidelines for Non-Clinical Research Techniques of Cytotoxic Antitumor Drugs”.
as §6
(§10) Tumor volume (TV) was calculated as: TV=a×b^2/2, in which a and b represented the length and width of the tumor as measured, respectively. The relative tumor volume (RTV) was calculated as: RTV=Vt/V1, in which V1 was the tumor volume at the time of grouping and administration, and Vt was the tumor volume measured on a day after administration. The evaluation index of anti-tumor activity was the relative tumor proliferation rate T/C (%), which was calculated as: relative tumor proliferation rate T/C (%)=(TRTV/CRTV)×100%, in which TRTV was the RTV of the treatment group, CRTV was the RTV of the vehicle control group; tumor remission rate (%) was calculated as: (the number of SD (stable disease), PR (tumor partial regression) and CR (tumor complete regression) in the tumor-bearing mice after treatment)/the total number of mice in the group×100%. Change of body weight %=(measured body weight−body weight at the time of grouping)/body weight at the time of grouping×100%.
(§11) ; The synergistic analysis was performed by the following formula: synergy factor=((A/C)×(B/C))/(AB/C); A=RTV value of the group administered with A only; B=RTV value of the group administered with B only; C=RTV value of the vehicle control group; AB=RTV value of the group administered with A and B in combination (Clarke R. Issues in experimental design and endpoint analysis in the study of experimental cytotoxic agents in vivo in breast cancer and other models [J]. Breast Cancer Research & Treatment, 1997, 46(2-3): 255-278). If the synergy factor was >1, there was a synergistic effect; if the synergistic factor=1, there was an additive effect; if the synergistic factor <1, there was an antagonistic effect.

[7] = system: human DOHH2 (FL) xenograft tumor; format: in vivo; settings: Cpd. 6 50 mg/kg, Ibrutinib 20 mg/kg
Experimental: as §9, §6, §10, §11

[8] = system: human DOHH2 (FL) xenograft tumor; format: in vivo; settings: Cpd. 6 100 mg/kg, Ibrutinib 25 mg/kg; for TGI (%) on day 32 after administration: TGI = 100 − T/C%
Experimental: as §5, §6, §7, §8

[9] = system: DOHH-2 cells; assay: Flow cytometry analysis of apoptosis (Annexin V/PI), DOHH-2; format: cell-based, human; settings: DOHH-2, 24 hours; 10 nM Compound 6, 100 nM ibrutinib, or the combination
Experimental: as §3, §4

[10] = Cpd. 6 100 mg/kg, Ibrutinib 15 mg/kg
[11] = Cpd. 6 100 mg/kg, Ibrutinib 15 mg/kg, including CR, PR and SD
[12] = Cpd. 6 100 mg/kg, Ibrutinib 15 mg/kg, mice per group
[13] = Cpd. 6 100 mg/kg, Ibrutinib 15 mg/kg, mice per group, listed as Cpd. 6

SMILES | IC50 [1] [nM] | IC50 [2] [nM] | apoptosis induction (Annexin V / PI positive cells) [3] | RTV on the 43rd day after administration (mean ± standard error) [4] | T/C (%) on day 43 after administration [4] [%] | TGI (%) on day 43 after administration [4, 10] [%] | RTV on day 50 after administration (mean ± standard error) [4, 10] | remission rate % on day 43 after administration [4, 11] | remission rate % on day 50 after administration [4, 11] | Tumor status on day 43 after administration: CR (tumor complete regression) [4, 12] | Tumor status on day 43 after administration: PR (tumor partial regression) [4, 12] | Tumor status on day 50 after administration: CR [4, 12] | Tumor status on day 50 after administration: PR [4, 12] | RTV on day 36 after administration (mean ± standard error) [6] | T/C on day 36 after administration [6] | RTV on day 35 after administration (mean ± standard error) [7] | T/C (%) on day 35 after administration [7] [%] | TGI (%) on day 32 after administration [8] [%] | RTV on day 32 after administration (mean ± standard error) [8] | T/C (%) on day 32 after administration [8] [%] | further results
CC1(C)CCC(CN2CCN(c3ccc(C(=O)NS(=O)(=O)c4ccc(NCC5CCOCC5)c([N+](=O)[O-])c4)c(Oc4cnc5[nH]ccc5c4)c3)CC2)=C(c2ccc(Cl)cc2)C1 [ABT-199, reference compound] | 1190 | 51.1 |  |  |  |  |  |  |  |  |  |  |  |  |  |  |  |  |  |  | 
O=C(NS(=O)(=O)c1ccc(NC[C@H]2COCCO2)c([N+](=O)[O-])c1)c1ccc(N2CCN(CC3=C(c4ccc(Cl)cc4)CC4(CCC4)CC3)CC2)cc1Oc1cnc2[nH]ccc2c1 [Compound 6, (S)-N-((4-(((1,4-dioxan-2-yl)methyl)amino)-3-nitrophenyl)sulfonyl)-2-((1H-pyrrolo[2,3-b]pyridin-5-yl)oxy)-4-(4-((6-(4-chlorophenyl)spiro[3.5]non-6-en-7-yl)methyl)piperazin-1-yl)benzamide] | 648 | 48.4 | slightly enhanced apoptotic activity | 1.03 ± 0.33 | 4 | 96 | 2.64 ± 0.55 | 20% | ( 10% ) | 1/5 | 1/5 | 0/5 CR, | 1/5 PR | 2.2 ± 0.4 | 0.090 | 7.5 ± 0.7 | 44.40 | 81 | 2.4 ± 0.2 | 19 | remission rate % on day 68 after administration [4, 11]: PR ( 0% ); remission rate % on day 43 after administration ([4]; Cpd. 6 100 mg/kg, Ibrutinib 15 mg/kg, including CR, PR and SD, listed as Cpd. 6): ( 100% ); Tumor status on day 68 after administration: CR [4, 12]: 0/5 CR, 0/5; Tumor status on day 68 after administration: PR [4, 12]: 0/5 CR, 0/5; Tumor status on day 43 after administration: CR (tumor complete regression) [4, 13]: 1/5 CR, 1/5; Tumor status on day 43 after administration: PR (tumor partial regression) [4, 13]: 1/5 CR, 1/5; anti-proliferative activities as a single agent compared with ABT-199 [5]: comparable if not better than ABT-199; RTV on day 43 after administration ([6]; day 43): 7.1 ± 0.4; apoptosis induction (Annexin V / PI positive cells) [9]: slightly enhanced apoptotic activity
Cc1c(S(C)(=O)=O)c(-c2cc(F)cc(N3CCN(c4ccc(NS(=O)(=O)c5ccc(N[C@H](CCN6CCC(C(=O)O)CC6)CSc6ccccc6)c(S(=O)(=O)C(F)(F)F)c5)cc4)CC3)c2)c(-c2ccc(Cl)cc2)n1C(C)C [Compound 88, (R)-1-(3-(4-(N-(4-(4-(3-(2-(4-chlorophenyl)-1-isopropyl-5-methyl-4-(methylsulfonyl)-1H-pyrrol-3-yl)-5-fluorophenyl)piperazin-1-yl)phenyl)-sulfamoyl)-2-(trifluoromethylsulfonyl)phenylamino)-4-(phenylthio)butyl)piperidine-4-carboxylic acid] | 17 |  |  |  |  |  |  |  |  |  |  |  |  |  |  |  |  |  |  |  | time to cell death ([1]; DOHH2^R-ibrutinib cells): ≤ 24 h
C=CC(=O)N1CCC[C@@H](n2nc(-c3ccc(Oc4ccccc4)cc3)c3c(N)ncnc32)C1 [Ibrutinib, reference compound] | 12200 | 73.5 | limited apoptosis activity | 15.9 ± 7.63 | 58 | 42 | 32.1 ± 1137 | PR ( 0% ) | ( 0% ) | 0/5 CR, 0/5 | 0/5 CR, 0/5 | 0/5 CR, | 0/5 PR | 20.5 ± 2.1 | 0.810 | 11.4 ± 1.5 | 67.7 | 52 | 6.1 ± 0.8 | 48 | increase of IC50 in DOHH2^R-ibrutinib versus DOHH2 cells [1]: 160 fold; apoptosis induction (Annexin V / PI positive cells) [9]: limited apoptosis activity
